# Tests used:
# ceramides = assay: Immunohistochemistry of ceramides in MDA tumor xenografts; type: in vivo, athymic nude mice; conditions: Sal-B 80 mg/kg three times per week; untreated control 2.3±0.7; P<0.05
# Protocol: (§1) Human tumor xenografts in athymic nude mice. […] The animal protocol was approved by the Howard University Animal Care and Use Committee. Four-week-old female athymic nude mice (Nu/Nu) were obtained from Harlan Sprague Dawley (Indianapolis, IN). All mice were provided the Harlan Teklad #2018 Global 18% protein rodent diet and water ad libitum. Mice were housed in temperature-controlled rooms (74±2° F.) with a 12-hour alternating light-dark cycle. MDA cells (3×10^6/50 μL/spot) were subcutaneously injected into the both sides of lower back of mice using a 27-gauge needle. […]
# Immunohistochemical staining was performed as described previously (Hao Y, et al., “Enforced expression of miR-101 inhibits prostate cancer cell growth by modulating the COX-2 pathway in vivo,” Cancer Prev Res (Phila), 2011; 4: 1073-1083). […] For the quantification, ten high-magnification (40×) fields were randomly selected from each slide of tumors and the positive cells were counted. The protein expression was expressed as the average number of positive cells per high magnification field. […]
# MDA tumor xenografts = assay: TUNEL assay of apoptotic cells in MDA tumor xenografts; type: in vivo, athymic nude mice; conditions: Sal-B 80 mg/kg three times per week; untreated tumors 3.1±1.8; P<0.05
# Protocol: as §1
# Apoptotic cells in MDA tumor xenografts were also analyzed by a terminal deoxynucleotidyl transferase-mediated dUTP nick end labeling (TUNEL) assay using the TdT-FragEL DNA Fragmentation Detection Kit (EMD Millipore, Burlington, MA) as previously described (Li H, et al., “Cellular uptake and anticancer activity of salvianolic acid B phospholipid complex loaded nanoparticles in head and neck cancer and precancer cells,” Colloids Surf B Biointerfaces. 2016; 147: 65-72). […]
# p-ERK = assay: Western blot of p-ERK expression in MCF-7 and MDA cells; type: cell-based, human; conditions: different concentrations of Sal-B, 24 hours
# Protocol: The immunohistochemical results were consistent with those from Western blotting (FIG. 7, panel A). Western blot analysis was used to determine the expression of apoptosis-related proteins Bcl-XL, survivin, caspase-3 and caspase-8 (FIG. 7, panel A). β-actin was used as an internal control for Western blotting. The MCD-7 and MDA cells were treated with Sal-B (50 μM and 100 μM) and doxorubicin (0.1 μM and 1 μM), respectively, for 24 hours. Proteins were extracted from the cells with RIPA lysis buffer (Santa Cruz Biotechnology, Santa Cruz, CA) and the protein concentrations were quantified with Bio-Rad protein quantification kit. Whole-cell proteins were separated on 8% SDS-polyacrylamide gel, transferred to the polyvinylidene difluoride membrane (Bio-Rad), and then probed with the indicated primary antibodies overnight at 4° C. Washed blots were then incubated with horseradish peroxidase-conjugated anti-rabbit, anti-mouse, or anti-goat antibody (Santa Cruz Biotechnology), respectively, for one hour at room temperature. Blots were developed and visualized with ECL detection system (Bio-Rad).
# Because phospho-p44/42 extracellular signal-regulated kinases (p-ERK) is a key enzyme in the MAPK signal pathway, the expression of p-ERK was also investigated in MCF-7 and MDA cells following exposure to different concentrations of Sal-B for 24 hours.
structure (smiles),measurement,setting,value
"O=C(/C=C/c1ccc(O)c2c1[C@H](C(=O)O[C@H](Cc1ccc(O)c(O)c1)C(=O)O)[C@@H](c1ccc(O)c(O)c1)O2)O[C@H](Cc1ccc(O)c(O)c1)C(=O)O [Sal-B, Salvianolic acid B]",ceramide levels in tumor xenografts (ceramide positive cells counted),ceramides,9.6±2.4
same,number of apoptotic cells (TUNEL),MDA tumor xenografts,12.2±3.2
same,p-ERK expression (normalized to β-actin),p-ERK; MCF-7 cells,down-regulated
same,p-ERK expression (normalized to β-actin),p-ERK; MDA cells,down-regulated

# Reference: patent publication US12383527B2, “Methods for treating triple negative breast cancer using salvianolic acid B” (HOWARD UNIVERSITY, priority 2018, dated 2025)
